Earlier results, collected in patent US20110281902A1, “COMBINATIONS COMPRISING A PROTEIN KINASE INHIBITOR BEING A PYRIMIDYLAMINOBENZAMIDE COMPOUND AND A HSP90 INHIBITOR SUCH AS 17-AAG” (priority 2005, published 2011).

How the values were obtained:
[1] = clinical trials in hematological malignancies and solid tumors
[2] = makes it difficult to formulate/administer

solubility [2]: poor solubility
Structure (SMILES): C=CCNC1=C2C[C@@H](C)C[C@H](OC)[C@H](O)[C@@H](C)/C=C(\C)[C@H](OC(N)=O)[C@@H](OC)/C=C\C=C(/C)C(=O)NC(=CC1=O)C2=O [17-AAG, 17-allylamino-17-demethoxygeldanamycin]
dose limiting toxicity [1]: hepatic
